This is an account of results in US20220354852A1, “TARGETING WNT SIGNALING FOR IMPROVED GLIOMA IMMUNOTHERAPY” (CITY OF HOPE, priority 2021, published 2022).

Data set [1] deals with PBT147 and PBT030 metabolic pathways. Description: NanoString nCounter human metabolic panel of PBT147 and PBT030 cells. The class given is cell-based. On the procedure: FIG. 8. NanoString analysis of human metabolic pathways after treatment with ICG-001. The profiling panel consists of 770 genes targeting six fundamental themes: neurotransmission, neuron-glia interactions, neuroplasticity, cell structure integrity, neuroinflammation, and metabolism. Each assay also includes six positive and eight negative RNA assay controls, plus ten mRNA housekeeping controls. RNA was hybridized with the Codeset from the gene panel at 65° C. for 16 h. The post-hybridization probe-target mixture were quantified using the nCounter Digital Analyzer, and all data analysis was performed on nSolver (NanoString Technologies) metabolic panel. All raw data was normalized with internal positive and negative controls to eliminate variability unrelated to the samples, then normalized to the selected housekeeping genes using Geometric Means methods.
FIG. 17. (A-F) NanoString analysis of human metabolic pathways after treatment with ICG-001. The profiling panel consisted of 770 genes targeting six fundamental themes: neurotransmission, neuron-glia interactions, neuroplasticity, cell structure integrity, neuroinflammation, and metabolism. Each assay also included six positive and eight negative RNA assay controls and ten mRNA housekeeping controls. RNA was hybridized with the Codeset from the gene panel at 65° C. for 16 h. The post-hybridization probe-target mixture was quantified using the nCounter Digital Analyzer and all data analysis was performed using the nSolver metabolic panel (NanoString Technologies). All raw data was normalized with internal positive and negative controls to eliminate variability unrelated to the samples and then normalized to the selected housekeeping genes using Geometric Means methods. PBT147 and PBT030 cells were treated with ICG-001 at […] for 24 h (data not shown) or 72 h. Total RNA was collected for NanoString analysis from triplicate samples.
PBT147 and PBT030 PBT cells were treated with ICG-001 (0, 5, or 10 μM) for 24-72 h. RNA expression was then analyzed using the NanoString nCounter platform (NanoString Technologies) by digitally detecting and counting in a single reaction without amplification using the NanoString human metabolic panel (City of Hope Molecular Pathology Core) (Geiss, Bumgarner et al. 2008). The data indicates change in a several metabolic markers and antigen presentation increased by PBT cells lines after treatment with ICG-001 at both time points. […] An increased p53 pathway and mitochondrial respiration was also observed at both time points and both cell lines.
ICG-001 Affects PBT tumor metabolism. The N-termini of the Kat3 coactivators, i.e. CBP and p300, provide a highly evolutionarily conserved hub to integrate multiple signaling cascades to coordinate cellular metabolism with the regulation of cellular status and function and specifically that p300/β-Catenin mediated transcription is required to enhance mitochondrial OXPHOS during the initiation of cellular differentiation (Hu et al. 2021, Thomas & Kahn 2016). Therefore, patient-derived GBM cell lines PBT147 and PBT030 lines were treated with ICG-001 (0, 5, or 10 μM) for 24 h or 72 h (FIG. 17 shown differences in both cells lines at 72 h). RNA isolated from the treated PBT cells was analyzed using the NanoString nCounter metabolic panel (NanoString Technologies). This approach digitally detects and counts gene transcripts in a single reaction without amplification (analysis done by City of Hope Molecular Pathology Core) (Geiss et al. 2008).

The subject of data set [2] is tumor cell glycolytic activity. Particulars: previously shown; cited from earlier work.
Data set [3] is described as follows: Orthotopic syngeneic murine hepatocellular carcinoma model (qRT-PCR, IHC). The class given is in vivo. The following applies: IHC, minimally 10 fields counted. The source says: (§1) CXCL9 and CXCL10, are produced mainly by BATF3 dendritic cells that are required for Teff trafficking. The CXCL9, CXCL10, CXCL11/CXCR3 signaling axis is critical for activated T-helper type 1 (Th1), cytotoxic T-cell (CTL), and natural killer (NK) cell recruitment immune cell recruitment in vivo. A similar effect resulting from ICG-001 is likely, such as increased CD8^+T-cell infiltration into brain tumors (FIG. 3B).
In general terms: In qPCR the cycle at which signal appears reflects the starting amount.

In data set [4] the test system is interferon-y regulated chemokines CXCL9-11 in the TME. The data set is described as above. The class given is in vivo. The following applies: qRT-PCR, previously demonstrated.
Source text: as §1

Data set [5] deals with CAR T cells (HER2 and mock). Description: Viability and cell count of CAR T / mock T cells treated with ICG-001. The class given is cell-based. Particulars: ICG001 0, 2.5, 5 uM for 24-72 h. On the procedure: FIG. 27. T cells treated with ICG001 2.5 and 5 μM for 24 or 72 h. (A) CAR Ts mock and HER2 from one donor and mock CARs derived from two additional donors were plated on 6-well format plates and treated with ICG001 at concentrations 0-5 μM for 24 or 72 h. Cells were collected from each well, counted, and viability was determined. (B, C) NanoString analysis of T cells treated with ICG-001 to determine concentration-dependent metabolic changes. […] (E) Correlation of differential gene expression in all T cell lines combined at concentration of 2.5 and 5 μM.
FIG. 29 is a bar graph showing the results of studies where CAR T calls are treated with ICG001 for 24 hours according to some embodiments. To determine how treatment with ICG001 affects the T cells, the following method was employed. On day 1, CAR Ts HER 2 or Mock CARs derived from the same donor and additional 2 donor mock cells were plated on 6 well format plates and treated with ICG001 0 uM, 2.5 uM, 5 uM for 24-72 h. On day 5, cells were collected per well, counted, cell viability was determined [pellets were frozen]. […] Note: CAR T from 494 donor treated with ICG001 were used in cytotoxicity assay #19 in comparison with untreated 4949 CARs.

Where [6] appears, read: ICG-001 0, 5, or 10 μM, 24 h or 72 h.
Where [7] appears, read: ICG-001 0, 5, or 10 μM, both time points.

Entries after “also recorded” stand apart in the source; their conditions may differ.

As for `O=C1[C@H](Cc2ccc(O)cc2)N2C(=O)CCN(C(=O)NCc3ccccc3)[C@H]2CN1Cc1cccc2ccccc12` [ICG-001], in data set [1] (setting [6]), the cell cycle-related genes entry is on record as “Downregulation; also recorded: cell cycle decrease”; the “glutamine metabolism, ROS, mTOR, and p53 signaling” value is reported as “Upregulation”; the glycolysis result is “decrease”; the mitochondrial respiration entry is listed as “increased”. In addition, in data set [1] (setting [7]), the antigen presentation entry is “increased” and the immunosuppressive tryptophan/kynurenine metabolism entry is “concomitant decrease”. In data set [1] (all treated cell lines, all timepoints), the fatty acid oxidation result was “decreased in all treated cell lines at all timepoints; also recorded: decreased in all treated cells and all timepoints”. In addition, in data set [2], the “glycolytic activity and extracellular acidification of tumor cells” value was “decrease in glycolytic activity and extracellular acidification”. Moreover, the “CD8+ T cell infiltration into the tumor microenvironment” value in data set [3] is “increased CD8+ T cell infiltration”. For the same molecule, in data set [4], the “expression of interferon-y regulated chemokines CXCL9-11 in the TME” value is reported as “significantly increased; also recorded: increased the expression”. Also, the “CAR T cell viability and proliferation” value in data set [5] is “not toxic to T cells in vitro”. In data set [5] (listed as ICG001), the “CAR T cell viability and proliferation” value is “not affecting Car T cell viability and proliferation”.
